From ChEMBL document CHEMBL1154782, “Discovery of Trp-His and His-Arg analogues as new structural classes of short antimicrobial peptides” (J Med Chem, 2009)
Converted amounts (≈) assume the structure as drawn.

What was measured:
[1] = tested on: Staphylococcus aureus; assay: Antibacterial activity against methicillin-resistant Staphylococcus aureus DSM 50128509 after 15 to 18 hrs under aerobic condition by modified broth microdilution method; assay type: functional
[2] = tested on: Staphylococcus aureus; assay: Antibacterial activity against methicillin-resistant Staphylococcus aureus DSM 50128509; assay type: functional, organism-based
[3] = tested on: Staphylococcus epidermidis; assay: Antibacterial activity against methicillin-resistant Staphylococcus epidermidis DSM 50160384 after 15 to 18 hrs under aerobic condition by modified broth microdilution method; assay type: functional
[4] = tested on: Staphylococcus epidermidis; assay: Antibacterial activity against methicillin-resistant Staphylococcus epidermidis DSM 50160384; assay type: functional, organism-based
[5] = tested on: Escherichia coli; assay: Antibacterial activity against Escherichia coli ATCC 35218 after 15 to 18 hrs under aerobic condition by modified broth microdilution method; assay type: functional
[6] = tested on: Escherichia coli; assay: Antibacterial activity against Escherichia coli ATCC 35218; assay type: functional, organism-based
[7] = tested on: Klebsiella pneumoniae; assay: Antibacterial activity against Klebsiella pneumoniae ATCC 700603 after 15 to 18 hrs under aerobic condition by modified broth microdilution method; assay type: functional
[8] = tested on: Pseudomonas aeruginosa; assay: Antibacterial activity against Pseudomonas aeruginosa ATCC 9027 after 15 to 18 hrs under aerobic condition by modified broth microdilution method; assay type: functional
[9] = tested on: Candida albicans; assay: Antifungal activity against Candida albicans ATCC 10231 after 15 to 18 hrs under aerobic condition by modified broth microdilution method; assay type: functional
[10] = tested on: Candida albicans; assay: Antifungal activity against Candida albicans ATCC 10231; assay type: functional, organism-based
[11] = tested on: L929; assay: Cytotoxicity against mouse L929 cells up to 200 ug/mL after 5 days by MTT assay; assay type: cell-based; conditions: l929, 120 h
[12] = tested on: Pseudomonas aeruginosa; assay: Antibacterial activity against Pseudomonas aeruginosa ATCC 9027; assay type: functional, organism-based
[13] = tested on: Klebsiella pneumoniae; assay: Antibacterial activity against Klebsiella pneumoniae ATCC 700603; assay type: functional, organism-based

Row | Compound | MIC [1] [µg/mL] | IC50 [2] [µg/mL] | MIC [3] [µg/mL] | IC50 [4] [µg/mL] | MIC [5] [µg/mL] | IC50 [6] [µg/mL] | MIC [7] [µg/mL] | MIC [8] [µg/mL] | MIC [9] [µg/mL] | IC50 [10] [µg/mL] | Activity [11] | IC50 [12] [µg/mL] | IC50 [13] [µg/mL]
1 | COC(=O)[C@H](Cc1c[nH]c(C2CCCCC2)n1)NC(=O)[C@H](Cc1c[nH]c2ccccc12)NC(=O)OC(C)(C)C | 200 (≈ 372 µM) | 14 (≈ 26 µM) | 50 (≈ 93 µM) | 6.29 (≈ 11.7 µM) | 200 (≈ 372 µM) | 20.9 (≈ 38.8 µM) | > 200 | > 200 | 200 (≈ 372 µM) | 17.7 (≈ 32.9 µM) | Non-toxic | – | –
2 | CC(C)c1nc(C[C@H](NC(=O)OC(C)(C)C)C(=O)N[C@@H](CCCNC(=N)N)C(=O)NCc2ccccc2)c[nH]1 | 100 (≈ 184 µM) | 17.9 (≈ 33.1 µM) | 100 (≈ 184 µM) | 12.7 (≈ 23.3 µM) | 200 (≈ 369 µM) | 23.7 (≈ 43.7 µM) | > 200 | 200 (≈ 369 µM) | > 200 | – | Non-toxic | 45.1 (≈ 83.2 µM) | –
3 | COC(=O)[C@H](Cc1c[nH]c(C23CC4CC(CC(C4)C2)C3)n1)NC(=O)[C@H](Cc1c[nH]c2ccccc12)NC(=O)OC(C)(C)C | 20 (≈ 33.9 µM) | 1.69 (≈ 2.87 µM) | 50 (≈ 84.8 µM) | 4.03 (≈ 6.83 µM) | 100 (≈ 170 µM) | 6.59 (≈ 11.2 µM) | > 200 | > 200 | 200 (≈ 339 µM) | 26.6 (≈ 45.1 µM) | Non-toxic | – | –
4 | N[C@@H](Cc1c[nH]c2ccccc12)C(=O)N[C@@H](Cc1c[nH]c(C2CCC2)n1)C(=O)NCc1ccccc1 | 100 (≈ 206 µM) | 27.1 (≈ 55.9 µM) | 50 (≈ 103 µM) | 8.51 (≈ 17.6 µM) | 200 (≈ 413 µM) | 22.5 (≈ 46.4 µM) | > 200 | > 200 | 100 (≈ 206 µM) | 10.3 (≈ 21.3 µM) | Non-toxic | – | –
5 | N[C@@H](Cc1c[nH]c2ccccc12)C(=O)N[C@@H](Cc1c[nH]c(C23CC4CC(CC(C4)C2)C3)n1)C(=O)NCc1ccccc1 | 100 (≈ 177 µM) | 16 (≈ 28.3 µM) | 50 (≈ 88.5 µM) | 4.7 (≈ 8.32 µM) | 200 (≈ 354 µM) | 21.3 (≈ 37.8 µM) | 200 (≈ 354 µM) | > 200 | 50 (≈ 88.5 µM) | 8.25 (≈ 14.6 µM) | Non-toxic | – | 32 (≈ 56.6 µM)
6 | CC(C)(C)OC(=O)N[C@@H](Cc1c[nH]c(C23CC4CC(CC(C4)C2)C3)n1)C(=O)N[C@@H](CCCNC(=N)N)C(=O)NCc1ccccc1 | 20 (≈ 31.5 µM) | 7.47 (≈ 11.8 µM) | 100 (≈ 158 µM) | 11.5 (≈ 18.1 µM) | > 200 | – | 100 (≈ 158 µM) | 100 (≈ 158 µM) | > 200 | – | Non-toxic | 27.2 (≈ 42.9 µM) | 15.1 (≈ 23.8 µM)
7 | COC(=O)[C@H](CCCNC(=N)N)NC(=O)[C@H](Cc1c[nH]c(C2CCC2)n1)NC(=O)OC(C)(C)C | > 200 | – | > 200 | – | 200 (≈ 417 µM) | 18.1 (≈ 37.8 µM) | 200 (≈ 417 µM) | > 200 | > 200 | – | Non-toxic | – | 15 (≈ 31.2 µM)
8 | CC(C)(C)OC(=O)N[C@@H](Cc1c[nH]c(C2CCC2)n1)C(=O)N[C@@H](CCCNC(=N)N)C(=O)NCc1ccccc1 | > 200 | – | 200 (≈ 361 µM) | 19.3 (≈ 34.8 µM) | > 200 | – | 200 (≈ 361 µM) | > 200 | > 200 | – | Non-toxic | – | 20.8 (≈ 37.5 µM)
9 | CC(C)c1nc(C[C@H](N)C(=O)N[C@@H](CCCNC(=N)N)C(=O)NCc2ccccc2)c[nH]1 | 100 (≈ 226 µM) | 4.85 (≈ 11 µM) | 200 (≈ 452 µM) | 12.8 (≈ 28.8 µM) | > 200 | – | > 200 | 200 (≈ 452 µM) | > 200 | – | Non-toxic | 27.8 (≈ 62.7 µM) | –
10 | N=C(N)NCCC[C@H](NC(=O)[C@@H](N)Cc1c[nH]c(C23CC4CC(CC(C4)C2)C3)n1)C(=O)NCc1ccccc1 | 5 (≈ 9.35 µM) | 2.15 (≈ 4.02 µM) | 10 (≈ 18.7 µM) | 1.19 (≈ 2.23 µM) | 200 (≈ 374 µM) | 9.29 (≈ 17.4 µM) | 100 (≈ 187 µM) | > 200 | 50 (≈ 93.5 µM) | 7.46 (≈ 14 µM) | Non-toxic | – | 16.1 (≈ 30.2 µM)
11 | COC(=O)[C@H](CCCNC(=N)N)NC(=O)[C@@H](N)Cc1c[nH]c(C23CC4CC(CC(C4)C2)C3)n1 | 10 (≈ 21.8 µM) | 3.67 (≈ 7.99 µM) | 20 (≈ 43.5 µM) | 4.28 (≈ 9.31 µM) | > 200 | – | 200 (≈ 435 µM) | 200 (≈ 435 µM) | > 200 | – | Non-toxic | 35.5 (≈ 77.2 µM) | 19.4 (≈ 42.2 µM)
12 | N[C@@H](Cc1c[nH]c2ccccc12)C(=O)N[C@@H](Cc1c[nH]c(C2CCCCC2)n1)C(=O)NCc1ccccc1 | 10 (≈ 19.5 µM) | 4.8 (≈ 9.36 µM) | 50 (≈ 97.5 µM) | 7.54 (≈ 14.7 µM) | > 200 | – | 50 (≈ 97.5 µM) | > 200 | 100 (≈ 195 µM) | 8.41 (≈ 16.4 µM) | Non-toxic | – | 17.4 (≈ 33.9 µM)
